Laboratory results as given in PubChem BioAssay AID2060906 (Molecular Pharmacology Branch, DTP, NCI, 2025).
pIC50: −log10 of the molar value.

System: 485176-168-R4-J1-PDC complex spheroid growth
Experiment: Anticancer human tumor 485176-168-R4-J1-PDC patient-derived pancreatic adenocarcinoma cell line growth inhibition [RAS]
Conditions: for pIC50: curve of first compound; for viability, T/C: stronger effect = lower value
Procedure, shortened: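 Multi-cell-type spheroids: tumor cells plus HUVEC endothelial cells and mesenchymal stem cells. RAS-pathway inhibitors were combined with targeted agents, each dosed in half-log steps down from clinical Cmax, or from 10 microM when Cmax was unknown.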

[1] = second compound 0.000949 µM, first compound 0.0316 µM
[2] = second compound 0.000949 µM, first compound 0.1 µM
[3] = second compound 0.000949 µM, first compound 0.316 µM
[4] = second compound 0.000949 µM, first compound 1 µM
[5] = second compound 0.000949 µM, first compound 3.16 µM
[6] = second compound 0.000949 µM, first compound 10 µM
[7] = second compound 0.003 µM, first compound 0.0316 µM
[8] = second compound 0.003 µM, first compound 0.1 µM
[9] = second compound 0.003 µM, first compound 0.316 µM
[10] = second compound 0.003 µM, first compound 1 µM
[11] = second compound 0.003 µM, first compound 3.16 µM
[12] = second compound 0.003 µM, first compound 10 µM
[13] = second compound 0.00949 µM, first compound 0.0316 µM
[14] = second compound 0.00949 µM, first compound 0.1 µM
[15] = second compound 0.00949 µM, first compound 0.316 µM
[16] = second compound 0.00949 µM, first compound 1 µM
[17] = second compound 0.00949 µM, first compound 3.16 µM
[18] = second compound 0.00949 µM, first compound 10 µM
[19] = second compound 0.03 µM, first compound 0.0316 µM
[20] = second compound 0.03 µM, first compound 0.1 µM
[21] = second compound 0.03 µM, first compound 0.316 µM
[22] = second compound 0.03 µM, first compound 1 µM
[23] = second compound 0.03 µM, first compound 3.16 µM
[24] = second compound 0.03 µM, first compound 10 µM
[25] = second compound 0.0949 µM, first compound 0.0316 µM
[26] = second compound 0.0949 µM, first compound 0.1 µM
[27] = second compound 0.0949 µM, first compound 0.316 µM
[28] = second compound 0.0949 µM, first compound 1 µM
[29] = second compound 0.0949 µM, first compound 3.16 µM
[30] = second compound 0.0949 µM, first compound 10 µM
[31] = second compound 0.3 µM, first compound 0.0316 µM
[32] = second compound 0.3 µM, first compound 0.1 µM
[33] = second compound 0.3 µM, first compound 0.316 µM
[34] = second compound 0.3 µM, first compound 1 µM
[35] = second compound 0.3 µM, first compound 3.16 µM
[36] = second compound 0.3 µM, first compound 10 µM
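Note: spheroids exposed to compounds for seven days before readout.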
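Throughout, for viability, T/C: luminescence viability expressed relative to DMSO vehicle wells set as 100%.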

In the case of CCC(CC)c1cc(NC2CCC(N)C2)n2nccc2n1 (stereo not drawn) + CCn1c(-c2cc(N3CCN(C)CC3)cnc2C(C)OC)c2c3cc(ccc31)-c1csc(n1)CC(NC(=O)C1CC1C)C(=O)N1CCCC(N1)C(=O)OCC(C)(C)C2, the pIC50 (second compound 0.000949 µM) was 5.95, the pIC50 (second compound 0.003 µM) was 5.90 and the pIC50 (second compound 0.00949 µM) was 5.97. The pIC50 (second compound 0.03 µM) was 6.03, the pIC50 (second compound 0.0949 µM) was 5.98 and the pIC50 (second compound 0.3 µM) was 6.00. It also gave a viability, T/C [1] of 92.1%, a viability, T/C [2] of 83.7% and a viability, T/C [3] of 84.7%. It also gave a viability, T/C [4] of 55.9%, a viability, T/C [5] of 1.96% and a viability, T/C [6] of 0.46%. The viability, T/C [7] was 94.5%, the viability, T/C [8] was 94.3% and the viability, T/C [9] was 100%. It also gave a viability, T/C [10] of 62.4%, a viability, T/C [11] of 1.91% and a viability, T/C [12] of 0.43%. For the same compound, the viability, T/C [13] was 106%, the viability, T/C [14] was 78.7% and the viability, T/C [15] was 89.1%. It also gave a viability, T/C [16] of 53.4%, a viability, T/C [17] of 1.09% and a viability, T/C [18] of 0.36%. For the same compound, the viability, T/C [19] was 83.6%, the viability, T/C [20] was 84.1% and the viability, T/C [21] was 82.8%. The viability, T/C [22] was 47.6%, the viability, T/C [23] was 1.14% and the viability, T/C [24] was 0.38%. It also gave a viability, T/C [25] of 77.5%, a viability, T/C [26] of 89% and a viability, T/C [27] of 68.5%. It also gave a viability, T/C [28] of 53%, a viability, T/C [29] of 0.88% and a viability, T/C [30] of 0.45%. For the same compound, the viability, T/C [31] was 81.4%, the viability, T/C [32] was 70% and the viability, T/C [33] was 71.7%. The viability, T/C [34] was 50.1%, the viability, T/C [35] was 0.86% and the viability, T/C [36] was 0.45%.
With CC1(O)CCCC1n1c(=O)c(C(F)F)cc2cnc(NC3CCN(S(C)(=O)=O)CC3)nc21 (stereo not drawn) + CCn1c(-c2cccnc2C(C)OC)c2c3cc(ccc31)N1CCOC(CC(NC(=O)C(C(C)C)N(C)C(=O)C3(F)CCN(C(=O)C#CC(C)(C)N(C)C)CC3)C(=O)N3CCCC(N3)C(=O)OCC(C)(C)C2)C1 the pIC50 (second compound 0.000949 µM) was 5.47, the pIC50 (second compound 0.003 µM) was 5.50 and the pIC50 (second compound 0.00949 µM) was 5.47. The pIC50 (second compound 0.03 µM) was 5.48, the pIC50 (second compound 0.0949 µM) was 5.48 and the pIC50 (second compound 0.3 µM) was 5.77. The viability, T/C [1] was 114%, the viability, T/C [2] was 75% and the viability, T/C [3] was 70.6%. It also gave a viability, T/C [4] of 78.2%, a viability, T/C [5] of 60.8% and a viability, T/C [6] of 4.58%. For the same compound, the viability, T/C [7] was 103%, the viability, T/C [8] was 92.7% and the viability, T/C [9] was 76.6%. It also gave a viability, T/C [10] of 72.8%, a viability, T/C [11] of 57% and a viability, T/C [12] of 3.48%. For the same compound, the viability, T/C [13] was 90.4%, the viability, T/C [14] was 74.7% and the viability, T/C [15] was 60.6%. For the same compound, the viability, T/C [16] was 69.8%, the viability, T/C [17] was 57% and the viability, T/C [18] was 3.15%. It also gave a viability, T/C [19] of 110%, a viability, T/C [20] of 78.7% and a viability, T/C [21] of 87.2%. The viability, T/C [22] was 65.9%, the viability, T/C [23] was 63.5% and the viability, T/C [24] was 2.51%. It also gave a viability, T/C [25] of 89.2%, a viability, T/C [26] of 76.2% and a viability, T/C [27] of 69.6%. It also gave a viability, T/C [28] of 68.1%, a viability, T/C [29] of 56.1% and a viability, T/C [30] of 2.02%. The viability, T/C [31] was 78.7%, the viability, T/C [32] was 70.5% and the viability, T/C [33] was 58.1%. For the same compound, the viability, T/C [34] was 54.6%, the viability, T/C [35] was 47.8% and the viability, T/C [36] was 3.3%.
For CCc1c2c(nc3ccc(O)cc13)-c1cc3c(c(=O)n1C2)COC(=O)[C@]3(O)CC + CCn1c(-c2cc(N3CCN(C)CC3)cnc2C(C)OC)c2c3cc(ccc31)-c1csc(n1)CC(NC(=O)C1CC1C)C(=O)N1CCCC(N1)C(=O)OCC(C)(C)C2, the pIC50 (second compound 0.000949 µM) was 7.86, the pIC50 (second compound 0.003 µM) was 7.91 and the pIC50 (second compound 0.00949 µM) was 7.94. The pIC50 (second compound 0.03 µM) was 7.95, the pIC50 (second compound 0.0949 µM) was 7.99 and the pIC50 (second compound 0.3 µM) was 8.15. It also gave a viability, T/C (second compound 0.000949 µM, first compound 0.000949 µM) of 104%, a viability, T/C (second compound 0.000949 µM, first compound 0.003 µM) of 77.5% and a viability, T/C (second compound 0.000949 µM, first compound 0.00949 µM) of 64.3%. It also gave a viability, T/C (second compound 0.000949 µM, first compound 0.03 µM) of 30.8%, a viability, T/C (second compound 0.000949 µM, first compound 0.0949 µM) of 16.6% and a viability, T/C (second compound 0.000949 µM, first compound 0.3 µM) of 9.25%. For the same compound, the viability, T/C (second compound 0.003 µM, first compound 0.000949 µM) was 95%, the viability, T/C (second compound 0.003 µM, first compound 0.003 µM) was 86% and the viability, T/C (second compound 0.003 µM, first compound 0.00949 µM) was 55.6%. The viability, T/C (second compound 0.003 µM, first compound 0.03 µM) was 27.8%, the viability, T/C (second compound 0.003 µM, first compound 0.0949 µM) was 16.1% and the viability, T/C (second compound 0.003 µM, first compound 0.3 µM) was 9.83%. It also gave a viability, T/C (second compound 0.00949 µM, first compound 0.000949 µM) of 81.2%, a viability, T/C (second compound 0.00949 µM, first compound 0.003 µM) of 77.8% and a viability, T/C (second compound 0.00949 µM, first compound 0.00949 µM) of 50.3%. The viability, T/C (second compound 0.00949 µM, first compound 0.03 µM) was 32.4%, the viability, T/C (second compound 0.00949 µM, first compound 0.0949 µM) was 16.2% and the viability, T/C (second compound 0.00949 µM, first compound 0.3 µM) was 7.59%. The viability, T/C (second compound 0.03 µM, first compound 0.000949 µM) was 70.7%, the viability, T/C (second compound 0.03 µM, first compound 0.003 µM) was 72.3% and the viability, T/C (second compound 0.03 µM, first compound 0.00949 µM) was 52.3%. It also gave a viability, T/C (second compound 0.03 µM, first compound 0.03 µM) of 28.3%, a viability, T/C (second compound 0.03 µM, first compound 0.0949 µM) of 15.9% and a viability, T/C (second compound 0.03 µM, first compound 0.3 µM) of 12%. For the same compound, the viability, T/C (second compound 0.0949 µM, first compound 0.000949 µM) was 70.1%, the viability, T/C (second compound 0.0949 µM, first compound 0.003 µM) was 76.8% and the viability, T/C (second compound 0.0949 µM, first compound 0.00949 µM) was 45.2%. For the same compound, the viability, T/C (second compound 0.0949 µM, first compound 0.03 µM) was 32.5%, the viability, T/C (second compound 0.0949 µM, first compound 0.0949 µM) was 17% and the viability, T/C (second compound 0.0949 µM, first compound 0.3 µM) was 9.84%. The viability, T/C (second compound 0.3 µM, first compound 0.000949 µM) was 78.3%, the viability, T/C (second compound 0.3 µM, first compound 0.003 µM) was 62.1% and the viability, T/C (second compound 0.3 µM, first compound 0.00949 µM) was 47.3%. It also gave a viability, T/C (second compound 0.3 µM, first compound 0.03 µM) of 27.6%, a viability, T/C (second compound 0.3 µM, first compound 0.0949 µM) of 15.2% and a viability, T/C (second compound 0.3 µM, first compound 0.3 µM) of 6.04%.
CCC(CC)c1cc(NC2CCC(N)C2)n2nccc2n1 (stereo not drawn) was tested, and the viability, T/C (compound 0.0316 µM) was 105% [middle of 4 runs], the viability, T/C (compound 0.1 µM) was 93.7% [middle of 4 runs] and the viability, T/C (compound 0.316 µM) was 98.9% [middle of 4 runs]. The viability, T/C (compound 1 µM) was 80.6% [middle of 4 runs], the viability, T/C (compound 3.16 µM) was 3.56% [middle of 4 runs] and the viability, T/C (compound 10 µM) was 0.72% [middle of 4 runs]. For the same compound, the IC50 (curve of compound) was 1.58 µM [middle of 4 runs].
